Test results from patent US11026931B2, “Methods for the administration of certain VMAT2 inhibitors” (Neurocrine Biosciences, Inc., priority 2018, dated 2021).

Assays:
[1] = target: T1, human VMAT1 transporter (Homo sapiens, UniProt P54219); assay: Uptake in cells expressing VMAT1; type: cell-based; conditions: for inhibition of uptake through VMAT1: cells expressing VMAT1, test compounds at concentrations up to 10 μM; for effect on the uptake of monoamines through VMAT1: compared to reserpine
T1 construct: expressed in transfected cells
T1 sequence (P54219 1-525): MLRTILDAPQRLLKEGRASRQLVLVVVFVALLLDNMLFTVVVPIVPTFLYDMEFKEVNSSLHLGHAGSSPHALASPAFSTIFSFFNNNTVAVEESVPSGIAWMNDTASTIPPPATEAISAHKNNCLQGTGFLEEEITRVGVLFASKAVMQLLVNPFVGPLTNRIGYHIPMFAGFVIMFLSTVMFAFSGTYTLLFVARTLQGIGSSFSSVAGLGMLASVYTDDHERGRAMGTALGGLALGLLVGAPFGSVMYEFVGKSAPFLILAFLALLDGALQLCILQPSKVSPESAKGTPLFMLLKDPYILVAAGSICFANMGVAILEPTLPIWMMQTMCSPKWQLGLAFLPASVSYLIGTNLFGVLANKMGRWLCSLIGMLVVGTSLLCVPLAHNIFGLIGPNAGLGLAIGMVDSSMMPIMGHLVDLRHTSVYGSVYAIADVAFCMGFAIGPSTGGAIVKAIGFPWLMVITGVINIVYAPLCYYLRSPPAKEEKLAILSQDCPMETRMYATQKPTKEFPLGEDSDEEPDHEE

[2] = Analysis of hypersensitivity and dermatological reactions (case reports); type: in vivo
Description: A total of 17 cases of hypersensitivity reaction and/or dermatological findings and evidence for possible causal relationship with VBZ have been reported either spontaneously (6) or after solicitation (11). Of these 17 cases, 14 cases had both hypersensitivity reaction with dermatological findings (5 were serious and 9 were non-serious).

[3] = system: ptosis (adrenergic activation); assay: In vivo surrogate measure: ptosis
[4] = Plasma concentrations of circulating metabolites of VBZ; type: in vivo; conditions: metabolites formed from VBZ
[5] = system: dopamine, serotonin and adrenergic receptor subtypes; assay: Radioligand binding assays for monoamine receptor subtypes; conditions: for interaction with D1 and D2 receptors: radioligand binding assays and broad panel screen
[6] = system: prolactin release from the pituitary, modulated through the D2 dopamine receptor; assay: In vivo surrogate measure: prolactin release
[7] = of the 14 cases with hypersensitivity reaction and dermatological findings

| inhibition of uptake through VMAT1 [1] | effect on the uptake of monoamines through VMAT1 [1] | SMILES | induction of ptosis [3] | other results |
| --- | --- | --- | --- | --- |
| no significant inhibitory activity | no significant effect | COc1cc2c(cc1OC)[C@H]1C[C@@H](OC(=O)[C@@H](N)C(C)C)[C@H](CC(C)C)CN1CC2 [Valbenazine, (S)-2-amino-3-methyl-butyric acid (2R, 3R,11 bR)-3-isobutyl-9,10-dimethoxy-1,3,4,6,7,11b-hexahydro-2H-pyrido[2,1-a]isoquinolin-2-yl ester] | induced ptosis in an equivalent manner | association with hypersensitivity reactions ([2]; case reports received through 10 Oct. 2017): may be associated with hypersensitivity reactions with or without dermatological reactions; non-serious cases [2, 7]: 9 cases; serious cases [2, 7]: 5 cases; cases with both hypersensitivity reaction and dermatological findings ([2]; of the 17 cases): 14 cases |
| – | – | COc1cc2c(cc1OC)[C@@H]1C[C@@H](O)[C@@H](CC(C)C)CN1CC2 [R,S,S-DHTBZ] | – | interaction with D1 and D2 receptors [5]: interact with D1 and D2 receptors |
| no significant inhibitory activity | no significant effect | COc1cc2c(cc1OC)C1CC(=O)C(CC(C)C)CN1CC2 (racemic) [TBZ, 1,3,4,6,7, 11b-hexahydro-9,1O-dimethoxy-3-(2-methylpropyl)-2H-benzo(a)quinolizin-2-one, reference compound] | induced ptosis in an equivalent manner | increase in serum prolactin levels [6]: increase in serum prolactin levels |
| no significant inhibitory activity | no significant effect | COc1cc2c(cc1OC)[C@H]1C[C@@H](OC(=O)[C@@H](N)C(C)(C)O)[C@H](CC(C)C)CN1CC2 [NBI-136110] | – | half-lives of plasma concentration decline [4]: half-lives similar to VBZ |
| – | – | COc1cc2c(cc1OC)[C@@H]1C[C@H](O)[C@@H](CC(C)C)CN1CC2 [S,S,S-DHTBZ] | – | interaction with D1 and D2 receptors [5]: interact with D1 and D2 receptors |

| SMILES | inhibition of uptake through VMAT1 [1] | effect on the uptake of monoamines through VMAT1 [1] | induction of ptosis [3] | other results |
| --- | --- | --- | --- | --- |
| COc1cc2c(cc1OC)[C@H]1C[C@@H](O)[C@H](CC(C)C)CN1CC2 [R,R,R-DHTBZ, (2R, 3R,11bR)-3-isobutyl-9,10-dimethoxy-1,3,4,6,7,11b-hexahydro-2H-pyrido[2,1-a]isoquinolin-2-ol] | no significant inhibitory activity | no significant effect | induced ptosis in an equivalent manner | half-lives of plasma concentration decline [4]: half-lives similar to VBZ; specificity for the VMAT2 transporter ([5]; versus monoamine receptor subtypes and transporters): high specificity; increase in serum prolactin levels [6]: induced a similar increase in serum prolactin levels as TBZ |
| COC(=O)[C@H]1[C@H]2C[C@@H]3c4[nH]c5cc(OC)ccc5c4CCN3C[C@H]2C[C@@H](OC(=O)c2cc(OC)c(OC)c(OC)c2)[C@@H]1OC [reserpine, reference compound] | substantially inhibited uptake through VMAT1 | – | – | – |
